# Results taken from article PMC9133015 (Nature Communications, 2022).
# pIC50: −log10 of the molar value. Values joined by “and” are separate entries in the source; they are usually repeats but may differ in a detail not shown here. Equal entries are not always repeated. Where two headings read alike, the source gives them in different places.
# Key:
# DYRK2 = target: T1, DYRK2 (Homo sapiens, UniProt Q92630); test: DYRKs kinase activity assay (33P-ATP, DYRKtide substrate): DYRK2; type: biochemical
# T1 construct: purchased Reaction Biology Corporation (assay service)
# T1 sequence (Q92630 1-601): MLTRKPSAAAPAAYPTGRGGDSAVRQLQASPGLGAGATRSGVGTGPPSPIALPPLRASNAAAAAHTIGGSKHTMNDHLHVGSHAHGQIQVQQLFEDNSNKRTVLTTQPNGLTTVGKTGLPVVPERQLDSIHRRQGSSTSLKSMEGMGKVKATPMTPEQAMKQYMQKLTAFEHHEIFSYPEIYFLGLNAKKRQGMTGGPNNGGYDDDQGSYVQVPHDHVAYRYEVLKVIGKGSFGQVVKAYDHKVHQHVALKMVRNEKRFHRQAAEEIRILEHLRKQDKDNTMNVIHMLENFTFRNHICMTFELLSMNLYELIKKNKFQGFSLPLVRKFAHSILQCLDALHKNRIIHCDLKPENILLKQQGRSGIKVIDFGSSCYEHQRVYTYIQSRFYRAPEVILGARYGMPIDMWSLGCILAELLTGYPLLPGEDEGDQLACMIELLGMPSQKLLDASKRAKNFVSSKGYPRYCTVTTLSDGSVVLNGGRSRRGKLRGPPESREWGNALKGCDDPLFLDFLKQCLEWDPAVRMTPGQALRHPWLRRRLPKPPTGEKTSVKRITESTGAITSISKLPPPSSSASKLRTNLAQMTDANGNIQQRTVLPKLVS
# Pharmacokinetic profiles = type: in vivo; details: SD rats
smiles,measurement,setting,value
CCN1CCN(C(=O)c2ccc(Nc3ncc(F)c(-c4ccc5nc(N(C)C)sc5c4)n3)nc2)CC1 [YK-2-69],inhibition at 0.00228624 µM,"DYRK2; 0.00228624 µM, duplicates, read-out: % Inhibition DYRK2",26.1%
same,inhibition at 0.00685871 µM,"DYRK2; 0.00685871 µM, duplicates, read-out: % Inhibition DYRK2",53%
same,inhibition at 0.0205761 µM,"DYRK2; 0.0205761 µM, duplicates, read-out: % Inhibition DYRK2",65.2%
same,inhibition at 0.0617284 µM,"DYRK2; 0.0617284 µM, duplicates, read-out: % Inhibition DYRK2",82.1%
same,inhibition at 0.185185 µM,"DYRK2; 0.185185 µM, duplicates, read-out: % Inhibition DYRK2",94.1%
same,inhibition at 0.555556 µM,"DYRK2; 0.555556 µM, duplicates, read-out: % Inhibition DYRK2",96.8%
same,inhibition at 5 µM,"DYRK2; 5 µM, duplicates, read-out: % Inhibition DYRK2",97.8%
same,pIC50,DYRK2; read-out: DYRK2 IC50,8.05
same,Con. (individual rats NO.1-3),"Pharmacokinetic profiles; IV 1 mg/kg, 0.033 h, 1 mg/kg",1120 ng/mL and 712 ng/mL
same,Con. (individual rats NO.1-3),"Pharmacokinetic profiles; IV 1 mg/kg, 0.083 h, 1 mg/kg",959 ng/mL and 574 ng/mL
same,Con. (individual rats NO.1-3),"Pharmacokinetic profiles; IV 1 mg/kg, 0.25 h, 1 mg/kg",611 ng/mL and 402 ng/mL
same,Con. (individual rats NO.1-3),"Pharmacokinetic profiles; IV 1 mg/kg, 0.5 h, 1 mg/kg",480 ng/mL and 383 ng/mL
same,Con. (individual rats NO.1-3),"Pharmacokinetic profiles; IV 1 mg/kg, 1 h, 1 mg/kg",355 ng/mL and 310 ng/mL
same,Con. (individual rats NO.1-3),"Pharmacokinetic profiles; IV 1 mg/kg, 2 h, 1 mg/kg",199 ng/mL and 175 ng/mL
same,Con. (individual rats NO.1-3),"Pharmacokinetic profiles; IV 1 mg/kg, 4 h, 1 mg/kg",96.9 ng/mL and 91.7 ng/mL
same,Con. (individual rats NO.1-3),"Pharmacokinetic profiles; IV 1 mg/kg, 6 h, 1 mg/kg",63.9 ng/mL and 64.4 ng/mL
same,Con. (individual rats NO.1-3),"Pharmacokinetic profiles; IV 1 mg/kg, 8 h, 1 mg/kg",45.3 ng/mL and 36.2 ng/mL
same,Con. (individual rats NO.1-3),"Pharmacokinetic profiles; IV 1 mg/kg, 12 h, 1 mg/kg",14.4 ng/mL
same,Con. (individual rats NO.1-3),"Pharmacokinetic profiles; PO 10 mg/kg, 0.083 h, 10 mg/kg",9.74 ng/mL and 9.99 ng/mL
same,Con. (individual rats NO.1-3),"Pharmacokinetic profiles; PO 10 mg/kg, 0.25 h, 10 mg/kg",82.5 ng/mL and 106 ng/mL
same,Con. (individual rats NO.1-3),"Pharmacokinetic profiles; PO 10 mg/kg, 0.5 h, 10 mg/kg",228 ng/mL and 221 ng/mL
same,Con. (individual rats NO.1-3),"Pharmacokinetic profiles; PO 10 mg/kg, 1 h, 10 mg/kg",437 ng/mL and 376 ng/mL
same,Con. (individual rats NO.1-3),"Pharmacokinetic profiles; PO 10 mg/kg, 2 h, 10 mg/kg",729 ng/mL and 559 ng/mL
same,Con. (individual rats NO.1-3),"Pharmacokinetic profiles; PO 10 mg/kg, 4 h, 10 mg/kg",695 ng/mL and 609 ng/mL
same,Con. (individual rats NO.1-3),"Pharmacokinetic profiles; PO 10 mg/kg, 6 h, 10 mg/kg",538 ng/mL and 544 ng/mL
same,Con. (individual rats NO.1-3),"Pharmacokinetic profiles; PO 10 mg/kg, 8 h, 10 mg/kg",435 ng/mL and 507 ng/mL
same,Con. (individual rats NO.1-3),"Pharmacokinetic profiles; PO 10 mg/kg, 12 h, 10 mg/kg",220 ng/mL and 279 ng/mL
same,Con. (individual rats NO.1-3),"Pharmacokinetic profiles; PO 10 mg/kg, 24 h, 10 mg/kg",38.4 ng/mL and 66 ng/mL
same,concentration at 0.033 h,"Pharmacokinetic profiles; SD, rat, serum, iv, 1 mg/kg, IV 1 mg/kg, 0.033 h, read-out: Con. (individual rats NO.1-3)",1090 ng/mL
same,concentration at 2 h,"Pharmacokinetic profiles; SD, rat, serum, iv, 1 mg/kg, IV 1 mg/kg, 2 h, read-out: Con. (individual rats NO.1-3)",209 ng/mL
same,concentration at 2 h,"Pharmacokinetic profiles; SD, rat, serum, iv, 1 mg/kg, IV 1 mg/kg, 2 h, read-out: Con. Mean",194 ng/mL
same,concentration at 4 h,"Pharmacokinetic profiles; SD, rat, serum, iv, 1 mg/kg, IV 1 mg/kg, 4 h, read-out: Con. (individual rats NO.1-3)",97 ng/mL
same,concentration at 4 h,"Pharmacokinetic profiles; SD, rat, serum, iv, 1 mg/kg, IV 1 mg/kg, 4 h, read-out: Con. Mean",95.2 ng/mL
same,concentration at 6 h,"Pharmacokinetic profiles; SD, rat, serum, iv, 1 mg/kg, IV 1 mg/kg, 6 h, read-out: Con. (individual rats NO.1-3)",57.8 ng/mL
same,concentration at 6 h,"Pharmacokinetic profiles; SD, rat, serum, iv, 1 mg/kg, IV 1 mg/kg, 6 h, read-out: Con. Mean",62 ng/mL
same,concentration at 8 h,"Pharmacokinetic profiles; SD, rat, serum, iv, 1 mg/kg, IV 1 mg/kg, 8 h, read-out: Con. (individual rats NO.1-3)",43 ng/mL
same,concentration at 8 h,"Pharmacokinetic profiles; SD, rat, serum, iv, 1 mg/kg, IV 1 mg/kg, 8 h, read-out: Con. Mean",41.5 ng/mL
same,concentration at 12 h,"Pharmacokinetic profiles; SD, rat, serum, iv, 1 mg/kg, IV 1 mg/kg, 12 h, read-out: Con. (individual rats NO.1-3)",16.4 ng/mL
same,concentration at 12 h,"Pharmacokinetic profiles; SD, rat, serum, iv, 1 mg/kg, IV 1 mg/kg, 12 h, read-out: Con. Mean",16.9 ng/mL
same,concentration at 0.083 h,"Pharmacokinetic profiles; SD, rat, serum, po, 10 mg/kg, PO 10 mg/kg, 0.083 h, read-out: Con. (individual rats NO.1-3)",9.72 ng/mL
same,concentration at 0.083 h,"Pharmacokinetic profiles; SD, rat, serum, po, 10 mg/kg, PO 10 mg/kg, 0.083 h, read-out: Con. Mean",9.82 ng/mL
same,concentration at 0.25 h,"Pharmacokinetic profiles; SD, rat, serum, po, 10 mg/kg, PO 10 mg/kg, 0.25 h, read-out: Con. (individual rats NO.1-3)",90.7 ng/mL
same,concentration at 0.25 h,"Pharmacokinetic profiles; SD, rat, serum, po, 10 mg/kg, PO 10 mg/kg, 0.25 h, read-out: Con. Mean",93.1 ng/mL
same,concentration at 0.5 h,"Pharmacokinetic profiles; SD, rat, serum, po, 10 mg/kg, PO 10 mg/kg, 0.5 h, read-out: Con. (individual rats NO.1-3)",210 ng/mL
same,concentration at 0.5 h,"Pharmacokinetic profiles; SD, rat, serum, po, 10 mg/kg, PO 10 mg/kg, 0.5 h, read-out: Con. Mean",220 ng/mL
same,concentration at 1 h,"Pharmacokinetic profiles; SD, rat, serum, po, 10 mg/kg, PO 10 mg/kg, 1 h, read-out: Con. (individual rats NO.1-3)",386 ng/mL
same,concentration at 1 h,"Pharmacokinetic profiles; SD, rat, serum, po, 10 mg/kg, PO 10 mg/kg, 1 h, read-out: Con. Mean",400 ng/mL
same,concentration at 2 h,"Pharmacokinetic profiles; SD, rat, serum, po, 10 mg/kg, PO 10 mg/kg, 2 h, read-out: Con. (individual rats NO.1-3)",600 ng/mL
same,concentration at 2 h,"Pharmacokinetic profiles; SD, rat, serum, po, 10 mg/kg, PO 10 mg/kg, 2 h, read-out: Con. Mean",629 ng/mL
same,concentration at 4 h,"Pharmacokinetic profiles; SD, rat, serum, po, 10 mg/kg, PO 10 mg/kg, 4 h, read-out: Con. (individual rats NO.1-3)",684 ng/mL
